Assay results taken from patent publication US7166616B2, “Substituted alkanoic acids” (Aventis Pharma Limited, priority 2000, dated 2007).

melting point	SMILES
123 to 126 °C	Cc1ccccc1Nc1nc2ccc(CC(=O)Nc3ccc(C4(CC(=O)O)CCCC4)cc3)cc2o1 [Example 1, (1-{4-[2-(2-o-Tolylamino-benzoxazol-6-yl)-acetylamino]-phenyl}-cyclopentyl)-acetic acid]
223 to 226 °C	COc1cc(CC(=O)Nc2ccc(C3(CC(=O)O)CCCC3)cc2)ccc1NC(=O)Nc1ccccc1C [Example 2, [1-{4-[2-[3-Methoxy-4-[3-o-tolyl-ureido]-phenyl]-acetylamino]-phenyl}-cyclopentyl]-acetic acid]
